Assay results published in ChEMBL document CHEMBL4346730 (Bioorg Med Chem, 2019).
Values after ≈ are worked out from the molar mass of the structure shown.

Legend:
hERG (KCNH2) = hERG (KCNH2) (Homo sapiens, UniProt Q12809); experiment: Inhibition of human ERG at 1 uM relative to control
[1] = Chromatographic hydrophobicity index, log D of the compound at pH 7.4 by reverse-phase HPLC analysis; format: physicochemical; conditions: buffer
[2] = Inhibition of bovine corpus striatum PDE10A using [3H]cAMP or [3H]cGMP as substrate preincubated for 5 mins followed by substrate addition and measured after 30 mins by liquid scintillation counting method; set-up: species or system Bos taurus
[3] = Solubility in artificial interstitial fluid at pH 5 by HPLC analysis; format: physicochemical
[4] = Ratio of IC50 for PDE4 (unknown origin) to IC50 for bovine corpus striatum PDE10A
[5] = Half life in Wistar rat at 0.3 mg/kg, iv; format: ADME, organism-based; conditions: in vivo
[6] = target: cAMP and cAMP-inhibited cGMP 3',5'-cyclic phosphodiesterase 10A (Homo sapiens, UniProt Q9Y233); experiment: Inhibition of human N-terminal FLAG-tagged PDE10A (1 to 90 residues) expressed in using African green monkey COS7 cells using [3H]cAMP or [3H]cGMP as substrate preincubated for 5 mins followed by substrate addition and measured after 30 mins by liquid scintillation counting method
[7] = Ratio of IC50 for PDE3A (unknown origin) to IC50 for bovine corpus striatum PDE10A
[8] = Ratio of IC50 for PDE2A (unknown origin) to IC50 for bovine corpus striatum PDE10A
[9] = Ratio of IC50 for PDE7B (unknown origin) to IC50 for bovine corpus striatum PDE10A
[10] = Ratio of IC50 for PDE9A (unknown origin) to IC50 for bovine corpus striatum PDE10A
[11] = Ratio of IC50 for PDE5A (unknown origin) to IC50 for bovine corpus striatum PDE10A
[12] = Ratio of IC50 for PDE1 (unknown origin) to IC50 for bovine corpus striatum PDE10A
[13] = Ratio of IC50 for PDE11A (unknown origin) to IC50 for bovine corpus striatum PDE10A
[14] = Unbound brain-to-plasma concentration ratio in Wistar rat at 3 mg/kg, po; format: ADME, organism-based
[15] = Ratio of IC50 for PDE8A (unknown origin) to IC50 for bovine corpus striatum PDE10A
[16] = Ratio of IC50 for PDE6 (unknown origin) to IC50 for bovine corpus striatum PDE10A
[17] = Intrinsic clearance in human liver microsomes; format: ADME, Microsome; conditions: read-out: CLH
[18] = Oral bioavailability in Wistar rat at 3 mg/kg; format: ADME, organism-based; conditions: in vivo
[19] = Volume of distribution at steady state in Wistar rat at 0.3 mg/kg, iv; conditions: in vivo
Phosphodiesterase 4 = Phosphodiesterase 4 (Homo sapiens, UniProt P27815+Q08499+Q07343+Q08493); experiment: Inhibition of PDE4 (unknown origin); format: protein assay
[20] = Clearance in Wistar rat at 0.3 mg/kg, iv; conditions: in vivo
Rattus norvegicus = experiment: Antipsychotic activity in po dosed Wistar rat assessed as inhibition of electric stimulation-induced conditioned avoidance responses measured up to 6 days; format: functional; conditions: 144 h, read-out: ID50 (the source's name)
Phosphodiesterase 6 = experiment: Inhibition of PDE6 (unknown origin); format: protein assay, Homo sapiens
[21] = target: cGMP-specific 3',5'-cyclic phosphodiesterase (Homo sapiens, UniProt O76074); experiment: Inhibition of PDE5A (unknown origin)

Sequence of hERG (KCNH2) (Q12809 whole entry): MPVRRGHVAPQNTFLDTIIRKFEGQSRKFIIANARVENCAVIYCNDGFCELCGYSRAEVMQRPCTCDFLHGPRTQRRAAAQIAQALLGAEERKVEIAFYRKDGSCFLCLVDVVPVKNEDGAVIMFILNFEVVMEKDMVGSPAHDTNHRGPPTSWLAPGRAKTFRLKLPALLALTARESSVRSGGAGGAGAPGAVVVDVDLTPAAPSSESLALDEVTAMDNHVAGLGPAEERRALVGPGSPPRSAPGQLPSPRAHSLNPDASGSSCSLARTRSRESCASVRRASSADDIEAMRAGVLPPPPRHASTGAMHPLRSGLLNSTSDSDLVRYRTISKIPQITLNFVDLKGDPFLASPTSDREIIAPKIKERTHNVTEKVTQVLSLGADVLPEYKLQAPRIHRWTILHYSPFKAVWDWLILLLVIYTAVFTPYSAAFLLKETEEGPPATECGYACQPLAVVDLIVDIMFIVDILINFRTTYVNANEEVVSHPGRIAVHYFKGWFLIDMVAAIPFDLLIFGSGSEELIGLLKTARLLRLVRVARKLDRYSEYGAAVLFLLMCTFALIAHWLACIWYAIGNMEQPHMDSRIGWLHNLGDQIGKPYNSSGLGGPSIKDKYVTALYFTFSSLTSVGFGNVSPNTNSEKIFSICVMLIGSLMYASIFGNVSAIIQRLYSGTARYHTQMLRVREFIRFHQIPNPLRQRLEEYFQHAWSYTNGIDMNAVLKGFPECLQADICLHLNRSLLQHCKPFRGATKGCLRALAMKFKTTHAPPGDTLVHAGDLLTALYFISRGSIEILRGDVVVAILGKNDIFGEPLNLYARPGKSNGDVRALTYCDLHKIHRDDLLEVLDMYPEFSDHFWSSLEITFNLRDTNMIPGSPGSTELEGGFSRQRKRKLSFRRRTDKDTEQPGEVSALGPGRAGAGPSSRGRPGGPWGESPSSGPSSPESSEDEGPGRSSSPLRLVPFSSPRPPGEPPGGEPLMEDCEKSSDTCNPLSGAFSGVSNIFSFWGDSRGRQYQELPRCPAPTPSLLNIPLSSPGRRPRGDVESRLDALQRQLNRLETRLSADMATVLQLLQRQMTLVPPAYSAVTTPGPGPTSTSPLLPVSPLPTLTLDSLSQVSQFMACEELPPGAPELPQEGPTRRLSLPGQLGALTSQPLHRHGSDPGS
Sequence of cAMP and cAMP-inhibited cGMP 3',5'-cyclic phosphodiesterase 10A (Q9Y233 whole entry, the tested form may be a part): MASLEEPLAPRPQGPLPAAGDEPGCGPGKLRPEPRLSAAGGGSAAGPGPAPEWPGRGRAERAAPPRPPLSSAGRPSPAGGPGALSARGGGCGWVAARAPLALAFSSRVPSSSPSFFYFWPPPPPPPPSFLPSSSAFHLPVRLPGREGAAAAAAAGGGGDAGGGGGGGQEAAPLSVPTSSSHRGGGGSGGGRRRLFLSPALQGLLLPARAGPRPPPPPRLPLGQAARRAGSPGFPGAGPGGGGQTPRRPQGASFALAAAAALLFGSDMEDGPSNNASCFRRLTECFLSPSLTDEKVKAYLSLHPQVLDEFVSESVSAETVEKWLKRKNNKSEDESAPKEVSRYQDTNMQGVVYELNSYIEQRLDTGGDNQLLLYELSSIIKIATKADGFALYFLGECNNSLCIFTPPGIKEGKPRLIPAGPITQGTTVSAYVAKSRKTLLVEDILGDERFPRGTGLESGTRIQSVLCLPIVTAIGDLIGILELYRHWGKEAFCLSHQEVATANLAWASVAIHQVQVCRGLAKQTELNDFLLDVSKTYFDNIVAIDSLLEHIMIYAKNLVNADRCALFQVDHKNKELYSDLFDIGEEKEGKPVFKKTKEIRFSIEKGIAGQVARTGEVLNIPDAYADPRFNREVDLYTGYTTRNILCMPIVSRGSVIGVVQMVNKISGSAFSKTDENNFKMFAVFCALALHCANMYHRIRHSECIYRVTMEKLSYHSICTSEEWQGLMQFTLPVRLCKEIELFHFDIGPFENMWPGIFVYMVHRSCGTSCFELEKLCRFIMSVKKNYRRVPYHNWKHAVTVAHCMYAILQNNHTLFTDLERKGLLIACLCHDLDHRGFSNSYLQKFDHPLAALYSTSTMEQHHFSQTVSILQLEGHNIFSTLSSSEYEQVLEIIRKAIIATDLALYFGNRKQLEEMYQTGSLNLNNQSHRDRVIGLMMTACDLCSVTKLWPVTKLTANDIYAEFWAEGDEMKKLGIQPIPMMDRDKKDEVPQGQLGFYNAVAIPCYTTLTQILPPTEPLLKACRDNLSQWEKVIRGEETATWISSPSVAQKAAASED

Structure (SMILES) | CHI [1] | IC50 [2] [pM] | solubility [3] [µg/mL] | inhibition at 1 µM (hERG (KCNH2)) [%] | also measured
Cc1ccc2nc(C)c(-c3cc4nc(N5CCCC5)cc(N[C@H]5CC[C@](C)(O)CC5)n4n3)nc2c1.Cl | 3.29 | 36 | 62 | 29 | 
Cc1ccc2nc(C)c(-c3cc4nc(N5CCCC5)cc(NC5CCOCC5)n4n3)nc2c1.Cl | 3.4 | 90 | > 1000 | 64 | 
Cc1nc2cccc(C)c2nc1-c1cc2nc(N3CCCC3)cc(NC3CCOCC3)n2n1.Cl |  | 20 | 121 | 99 | 
Cc1nc2ccccc2nc1-c1cc2nc(N3CC[C@@H](F)C3)cc(N(C)C3CCOCC3)n2n1.Cl |  |  | 4.8 |  | Ratio IC50 [4]: > 1000; half-life [5]: 3.2 h; IC50 [6]: 61 pM; Ratio IC50 [7]: > 1000; Ratio IC50 [8]: > 1000; Ratio IC50 [9]: > 1000; Ratio IC50 [10]: > 1000; Ratio IC50 [11]: > 1000; Ratio IC50 [12]: > 1000; Ratio IC50 [13]: > 1000; Kp uu ([14]; Wistar, brain and plasma, read-out: K(p,uu,brain)): 0.61; Ratio IC50 [15]: > 1000; Ratio IC50 [16]: > 1000; microsomal CLint [17]: 127 µL/min/mg; bioavailability [18]: 19.2%
Cc1nc2ccc(F)cc2nc1-c1cc2nc(N3CC[C@@H](F)C3)cc(NCC(C)(C)O)n2n1.Cl | 2.79 | 90 | 118 | 23 | Vdss [19]: 2.307 L/kg; half-life [5]: 3.09 h; IC50 (Phosphodiesterase 4): 289000 pM; CL [20]: 8.77 mL/min/kg; IC50 [6]: 62 pM; ED50 (Rattus norvegicus): 0.32 mg/kg; K(p,uu,brain) ([14]; brain): 0.5; IC50 (Phosphodiesterase 6): 561000 pM; IC50 [21]: 437000 pM; bioavailability [18]: 43.7%
Cc1nc2ccc(F)cc2nc1-c1cc2nc(N3CCCC3)cc(N[C@H]3CC[C@](C)(O)CC3)n2n1.Cl | 3.23 | 8.8 | 15 | 12 | 
Cc1nc2ccccc2nc1-c1cc2nc(N3CCCC3)cc(NC3CCOCC3)n2n1 |  | 150 | 8.1 (≈ 18.9 µM) | 63 | 
CO[C@H]1CC[C@H](Nc2cc(N3CCCC3)nc3cc(-c4nc5cc(C)ccc5nc4C)nn23)CC1.Cl | 4.1 | 80 | 5.1 | 40 | 
Cc1ccc2nc(-c3cc4nc(N5CCCC5)cc(NC5CCOCC5)n4n3)c(C)nc2c1.Cl |  | 460 | 17 | 80 | 

Continued by falling IC50 [2], values first:

CHI [1] | IC50 [2] [pM] | solubility [3] [µg/mL] | Structure (SMILES) | inhibition at 1 µM (hERG (KCNH2)) [%] | also measured
 | 71000 |  | Cc1nc2ccccc2nc1-c1cn2c(NC3CCOCC3)cc(N3CCCC3)nc2n1 |  | 
 | 6000 |  | Cc1nc2ccccc2nc1-c1nc2nc(N3CCCC3)cc(NC3CCOCC3)n2n1 |  | 
 | 780 | 32 | Cc1nc2c(C)cccc2nc1-c1cc2nc(N3CCCC3)cc(NC3CCOCC3)n2n1.Cl | 94 | 
 | 410 |  | Cc1nc2ccccc2nc1-c1cn2nc(N3CCCC3)cc(NC3CCOCC3)c2n1 |  | 
 | 140 |  | Cc1nc2ccc(F)cc2nc1/C=C/c1nc(NC2CCOCC2)cc(N2CCCC2)n1 |  | 
 | 33 | 19 | Cc1ccc2nc(C)c(-c3cc4nc(N5CCCC5)cc(N[C@H]5CC[C@H](O)CC5)n4n3)nc2c1.Cl |  | 
3.07 | 8.1 | 8.7 | Cc1nc2ccc(F)cc2nc1-c1cc2nc(N3CCCC3)cc(NCC(C)(C)O)n2n1.Cl | 50 | 
